Reference: patent US8163766B2, “Beta-secretase modulators and methods of use” (Amgen Inc., priority 2005, dated 2012)

Tested on: Aβ 40 in conditioned media of cells stably expressing Amyloid Precursor Protein (APP)
Assay: BACE Cell-Based Assay (Aβ40 in conditioned medium, sandwich ELISA)
Conditions: 24 hours of incubation with the test compounds, Aβ 40 by sandwich ELISA, read-out: IC50 values in the cell-based assay (inhibition of Aβ 40)
Experimental: The cell-based assay measures inhibition or reduction of Aβ40 in conditioned medium of test compound treated cells, which express amyloid precursor protein.
Cells stably expressing Amyloid Precursor Protein (APP) were plated at a density of 40K cells/well in 96 well plates (Costar). The cells were cultivated for 24 h at 37° C. and 5% CO2 in DMEM supplemented with 10% FBS. The test compounds were then added to cells in 10-point dose response concentrations with the starting concentration being either 100 μM or 10 μM. The compounds were diluted from stock solutions in DMSO and the final DMSO concentration of the test compounds on cells was 0.1%. After 24 hours of incubation with the test compounds the supernatant conditioned media was collected and the Aβ 40 levels were determined using a sandwich ELISA. The IC50 of the compound was calculated from the percent of control or percent inhibition of Aβ 40 as a function of the concentration of the test compound.
The sandwich ELISA to detect Aβ 40 was performed in 96 well microtiter plates, which were pre-treated with goat anti-rabbit IgG (Pierce). The capture and detecting antibody pair that were used to detect Aβ 40 from cell supernatants were affinity purified pAb40 (Biosource) and biotinylated 6E10 (Signet Labs Inc.), respectively. The optimal concentration for the pAb40 antibody was 3 μg/ml in Superblock/TBS (Pierce) that was supplemented with 0.05% Tween 20 (Sigma). Optimal concentration for the detection antibody 6E10-biotinylated was […] in Superblock/TBS (Pierce) that had been supplemented with 2% normal goat serum and 2% normal mouse serum.
Cellular supernatants were incubated with the capture antibody for 3 h at 4° C., followed by 3 wash steps in TBS-tween (0.05%). The detecting antibody incubation was for 2 h at 4° C., again followed by the wash steps as described previously. The final readout of the ELISA is Time-Resolved Fluorescence (counts per minute) using Delfia reagents Streptavidin-Europium and Enhancement solutions (Perkin Elmer) and the Victor 2 multilabel counter (Perkin Elmer).

IC50, ≤ 5 µM:
CCc1ccc2c(c1)[C@@H](NC[C@@H](O)[C@H](Cc1ccccc1)NC(=O)C1Cc3ccccc3N(C)C1)CC1(CCCC1)O2 (stereo partly drawn) [Example 49, N-((2S,3R)-4-((S)-6-ethyl-2,2-spirocyclopentylchroman-4-ylamino)-3-hydroxy-1-phenylbutan-2-yl)-1-methyl-1,2,3,4-tetrahydroquinoline-3-carboxamide]
CCc1ccc2c(c1)[C@@H](NC[C@@H](O)[C@H](Cc1ccccc1)NC(=O)[C@H]1CN(C(C)=O)c3ccccc3O1)CC1(CCCC1)O2 [Example 50, (R)-4-acetyl-N-((2S,3R)-4-((S)-6-ethyl-2,2-spirocyclopentylchroman-4-ylamino)-3-hydroxy-1-phenylbutan-2-yl)-3,4-dihydro-2H-benzo[b][1,4]oxazine-2-carboxamide]
CCc1ccc2c(c1)[C@@H](NC[C@@H](O)[C@H](Cc1ccccc1)NC(=O)[C@@H]1CN(C(C)=O)c3ccccc3O1)CC1(CCCC1)O2 [Example 51, (S)-4-acetyl-N-((2S,3R)-4-((S)-6-ethyl-2,2-spirocyclopentylchroman-4-ylamino)-3-hydroxy-1-phenylbutan-2-yl)-3,4-dihydro-2H-benzo[b][1,4]oxazine-2-carboxamide]
CCc1ccc2c(c1)[C@@H](NC[C@@H](O)[C@H](Cc1ccccc1)NC(=O)[C@H]1CN(C(=O)OC(C)(C)C)c3ccccc3O1)CC1(CCCC1)O2 [Example 52, (R)-tert-Butyl 2-(((2S,3R)-4-((S)-6-ethyl-2,2-spirocyclopentylchroman-4-ylamino)-3-hydroxy-1-phenylbutan-2-yl)carbamoyl)-2,3-dihydrobenzo[b][1,4]oxazine-4-carboxylate]
CCc1ccc2c(c1)[C@@H](NC[C@@H](O)[C@H](Cc1ccccc1)NC(=O)c1cc(N3CCCC3=O)c(=O)n(C3CCCC3)c1)CC1(CCCC1)O2 [Example 105]
CCc1ccc2c(c1)[C@@H](NC[C@@H](O)[C@H](Cc1ccccc1)NC(=O)c1cc(-c3ccccc3F)c(=O)n3c1CCC3)CC1(CCCC1)O2 [Example 107, N-((2S,3R)-4-((8)-6-Ethyl-2,2-spirocyclopentylchroman-4-ylamino)3-hydroxy-1-phenylbutan-2-yl)-6-(2-fluorophenyl)-5-oxo-1,2,3,5-tetrahydroindolizine-8-carboxamide]
CCc1ccc2c(c1)[C@@H](NC[C@@H](O)[C@H](Cc1ccccc1)NC(=O)c1cc(-c3cccc(F)c3)c(=O)n3c1CCC3)CC1(CCCC1)O2 [Example 108, N-((2S,3R)-4-((8)-6-Ethyl-2,2-spirocyclopentylchroman-4-ylamino)3-hydroxy-1-phenylbutan-2-yl)-6-(3-fluorophenyl)-5-oxo-1,2,3,5-tetrahydroindolizine-8-carboxamide]
O=C(N[C@@H](Cc1ccccc1)[C@H](O)CN[C@H]1CC2(CCCC2)Oc2ccc(F)cc21)c1cc(N2CCCC2=O)c(=O)n(C2CCCC2)c1 [Example 110]
O=C(N[C@@H](Cc1ccccc1)[C@H](O)CN[C@H]1CC2(CCCC2)Oc2c(F)cc(F)cc21)c1cc(N2CCCC2=O)c(=O)n(C2CCCC2)c1 [Example 111]
CCc1ccc2c(c1)[C@@H](NC[C@@H](O)[C@H](Cc1ccccc1)NC(=O)c1cc(N3CCCC3=O)c(=O)n(C3CCCC3)c1)CC1(CCC1)O2 [Example 116]
CCc1ccc2c(c1)[C@@H](NC[C@@H](O)[C@H](Cc1ccccc1)NC(=O)c1ccc(=O)n(C3CCCC3)c1)CC1(CCC1)O2 [Example 117]
CCc1ccc2c(c1)[C@@H](NC[C@@H](O)[C@H](Cc1ccccc1)NC(=O)c1ccc(=O)n(CC(C)C)c1)CC1(CCC1)O2 [Example 118]
CCc1ccc2c(c1)[C@@H](NC[C@@H](O)[C@H](Cc1ccccc1)NC(=O)c1ccc(=O)n(CC(F)(F)F)c1)CC1(CCC1)O2 [Example 119]
CCc1ccc2c(c1)[C@@H](NC[C@@H](O)[C@H](Cc1ccccc1)NC(=O)c1ccc(=O)n(-c3ccccc3)c1)CC1(CCC1)O2 [Example 120]
O=C(N[C@@H](Cc1ccccc1)[C@H](O)CN[C@H]1CC2(CCCC2)Oc2ccc(Br)cc21)c1cc(N2CCCC2=O)c(=O)n(C2CCCC2)c1 [Example 121]
O=C(N[C@@H](Cc1ccccc1)[C@H](O)CN[C@H]1CC2(CCCC2)Oc2ccc(Br)cc21)c1ccc(=O)n(C2CCCC2)c1 [Example 122]
CC(C)Cn1cc(C(=O)N[C@@H](Cc2ccccc2)[C@H](O)CN[C@H]2CC3(CCCC3)Oc3ccc(Br)cc32)ccc1=O [Example 123]
CC(C)(C)Cc1ccc2c(c1)[C@@H](NC[C@@H](O)[C@H](Cc1ccccc1)NC(=O)c1cc(N3CCCC3=O)c(=O)n(C3CCCC3)c1)CC1(CCCC1)O2 [Example 124]
CC(C)(C)Cc1ccc2c(c1)[C@@H](NC[C@@H](O)[C@H](Cc1ccccc1)NC(=O)c1ccc(=O)n(C3CCCC3)c1)CC1(CCCC1)O2 [Example 125]
CCc1ccc2c(c1)[C@@H](NC[C@@H](O)[C@H](Cc1ccccc1)NC(=O)c1cc(-c3ccccc3F)c(=O)n3c1CCC3)CC1(CCC1)O2 [Example 126, N-((2S,3R)-4-((S)-6-Ethyl-2,2-spirocyclobutylchroman-4-ylamino)3-hydroxy-1-phenylbutan-2-yl)-6-(2-fluorophenyl)-5-oxo-1,2,3,5-tetrahydroindolizine-8-carboxamide]
CCc1ccc2c(c1)[C@@H](NC[C@@H](O)[C@H](Cc1ccccc1)NC(=O)c1cc(N3CCCC3=O)c(=O)n(C3CCCC3)c1)CC1(CCCCC1)O2 [Example 128, 1-cyclopentyl-N-((2S,3R)-4-((8)-6-ethyl-2,2-spirocyclohexyl-chroman-4-ylamino)-3-hydroxy-1-phenylbutan-2-yl)-6-oxo-5-(2-oxopyrrolidin-1-yl)-1,6-dihydropyridine-3-carboxamide]
CCc1ccc2c(c1)[C@@H](NC[C@@H](O)[C@H](Cc1ccccc1)NC(=O)c1ccc(=O)n(C3CCCCC3)c1)CC1(CCCCC1)O2 [Example 129, 1-cyclohexyl-N-((2S,3R)-4-((S)-6-ethyl-2,2-spirocyclohexyl-chroman-4-ylamino)-3-hydroxy-1-phenylbutan-2-yl)-6-oxo-1,6-dihydropyridine-3-carboxamide]
CCc1ccc2c(c1)[C@@H](NC[C@@H](O)[C@H](Cc1ccccc1)NC(=O)c1cc(N3CCCC3=O)c(=O)n(C3CCCC3)c1)CC1(CCCCCC1)O2 [Example 130, 1-cyclopentyl-N-((2S,3R)-4-((S)-6-ethyl-2,2-spirocycloheptyl-chroman-4-ylamino)-3-hydroxy-1-phenylbutan-2-yl)-6-oxo-5-(2-oxopyrrolidin-1-yl)-1,6-dihydropyridine-3-carboxamide]
Cc1ccc2c(c1)[C@@H](NC[C@@H](O)[C@H](Cc1ccccc1)NC(=O)c1cc(N3CCCC3=O)c(=O)n(C3CCCC3)c1)CC1(CCCC1)O2 [Example 131, 1-cyclopentyl-N-((2S,3R)-4-((S)-2,2-spirocyclopentyl-6-methylchroman-4-ylamino)-3-hydroxy-1-phenylbutan-2-yl)-6-oxo-5-(2-oxopyrrolidin-1-yl)-1,6-dihydropyridine-3-carboxamide]
Cc1ccc2c(c1)[C@@H](NC[C@@H](O)[C@H](Cc1ccccc1)NC(=O)c1ccc(=O)n(C3CCCC3)c1)CC1(CCCC1)O2 [Example 132, 1-cyclopentyl-N-((2S,3R)-4-((S)-2,2-spirocyclopentyl-6-methylchroman-4-ylamino)-3-hydroxy-1-phenylbutan-2-yl)-6-oxo-1,6-dihydropyridine-3-carboxamide]
Cc1ccc2c(c1)[C@@H](NC[C@@H](O)[C@H](Cc1ccccc1)NC(=O)c1ccc(=O)n(CC(C)(C)C)c1)CC1(CCCC1)O2 [Example 133, N-((2S,3R)-4-((S)-2,2-spirocyclopentyl-6-methylchroman-4-ylamino)-3-hydroxy-1-phenylbutan-2-yl)-1-neopentyl-6-oxo-1,6-dihydropyridine-3-carboxamide]
O=C(N[C@@H](Cc1ccccc1)[C@H](O)CN[C@H]1CC2(CCCC2)Oc2ccc(OC(F)(F)F)cc21)c1cc(N2CCCC2=O)c(=O)n(C2CCCC2)c1 [Example 134, 1-cyclopentyl-N-((2S,3R)-4-((S)-2,2-spirocyclopentyl-6-(trifluoromethoxy)chroman-4-ylamino)-3-hydroxy-1-phenylbutan-2-yl)-6-oxo-5-(2-oxopyrrolidin-1-yl)-1,6-dihydropyridine-3-carboxamide]
O=C(N[C@@H](Cc1ccccc1)[C@H](O)CN[C@H]1CC2(CCCC2)Oc2ccc(OC(F)(F)F)cc21)c1ccc(=O)n(C2CCCC2)c1 [Example 135, 1-cyclopentyl-N-((2S,3R)-4-((S)-2,2-spirocyclopentyl-6-(tri-fluoromethoxy)chroman-4-ylamino)-3-hydroxy-1-phenylbutan-2-yl)-6-oxo-1,6-dihydropyridine-3-carb oxamide]
